Measured values: patent US8039500B2, “Fused heterocyclic compounds” (Takeda Pharmaceutical Company Limited, priority 2006, dated 2011)
pIC50: −log10 of the molar value.

Columns and labels:
human CRF receptor = target: T1, human CRF receptor (Homo sapiens, UniProt P34998); assay: CRF binding inhibitory rate / receptor binding experiment with 125I-CRF; conditions: human CRF receptor expressing CHO cellular membrane fraction, 50 pM 125I-CRF (ovine CRF), room temperature 1.5 hr, 0.05 nM to 10 μM of compound; read-out: IC50 values (CRF binding inhibition)
T1 construct: expressed in transfected cells; host or cells: CHO cells (membrane fraction)
T1 sequence (P34998 24-415): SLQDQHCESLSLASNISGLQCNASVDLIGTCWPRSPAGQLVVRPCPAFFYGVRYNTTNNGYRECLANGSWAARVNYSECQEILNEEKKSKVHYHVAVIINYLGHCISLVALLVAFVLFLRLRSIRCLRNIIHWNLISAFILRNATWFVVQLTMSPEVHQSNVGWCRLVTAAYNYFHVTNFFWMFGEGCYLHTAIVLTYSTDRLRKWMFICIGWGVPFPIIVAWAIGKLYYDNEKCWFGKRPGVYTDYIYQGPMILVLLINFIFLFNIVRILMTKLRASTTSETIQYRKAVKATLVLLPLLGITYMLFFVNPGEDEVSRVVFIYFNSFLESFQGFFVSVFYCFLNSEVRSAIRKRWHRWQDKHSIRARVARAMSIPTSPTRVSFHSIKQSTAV
Method: Measurement of CRF Binding Inhibitory Rate
A receptor binding experiment was carried out using a human CRF receptor expressing CHO cellular membrane fraction and ovine CRF, [^125I]-tyr^0(^125I-CRF). 1000 nM of a test compound was incubated with 1 μg of human CRF receptor expressing CHO cellular membrane fraction and 50 pM of ^125I-CRF in a binding assay buffer (50 mM Tris-HCl, 5 mM EDTA, 10 mM MgCl2, 0.05% CHAPS, 0.1% BSA, 0.5 mM PMSF, 0.1 μg/mL pepstatin, 20 μg/mL leupeptin, pH 7.5). In addition, for measuring nonspecific binding (NSB), 0.1 μM unlabelled human Urocortin was incubated with 5 μg of human CRF receptor expressing CHO cellular membrane fraction and 50 pM of ^125I-CRF in a binding assay buffer. After a binding reaction was carried out at room temperature for 1.5 hr, the membrane was entrapped on a glass filter (UniFilter plate GF-C/Perkin Elmer) by suction filtration using a cell harvester (Perkin Elmer), and washed with ice-cooled 50 mM Tris-HCl (pH 7.5). After drying the glass filter, a liquid scintillation cocktail (Microscinti 0, Perkin Elmer) was added, and the radioactivity of ^125I-CRF remaining on a glass filter was measured using Topcount (Perkin Elmer).
(TB-SB)/(TB-NSB)×100 (SB: radioactivity when a compound is added, TB: maximum binding radioactivity, NSB: nonspecific binding radioactivity) were calculated to obtain binding inhibitory rates under the range of the presence from 0.05 nM to 10 μM of each compound. The IC50 values were calculated by using GraphPad Prism software.

SMILES | pIC50 (human CRF receptor) | melting point
CCC(c1cccc2nc(Cc3c(Cl)cc(C(F)(F)F)cc3Cl)n(C)c12)C(C)O (stereo not drawn) [Example 9, 3-{2-[2,6-Dichloro-4-(trifluoromethyl)benzyl]-1-methyl-1H-benzimidazol-7-yl}pentan-2-ol] | > 6.00 | –
CC=C(CC)c1cccc2nc(Cc3c(C)cc(C)cc3C)n(C)c12 (mixture of isomers) [Example 4, 7-[1-Ethylprop-1-en-1-yl]-2-(mesitylmethyl)-1-methyl-1H-benzimidazole] | > 6.00 | –
CC=C(CC)c1cccc2nc(Cc3c(Cl)cc(C(F)(F)F)cc3Cl)n(C)c12 [Example 7, 2-[2,6-Dichloro-4-(trifluoromethyl)benzyl]-7-[1-ethylprop-1-en-1-yl]-1-methyl-1H-benzimidazole] | > 6.00 | –
CCN(CC)c1cccc2nc(Cc3c(Cl)cc(C(F)(F)F)cc3Cl)n(C)c12 [Example 2, 2-[2,6-Dichloro-4-(trifluoromethyl)benzyl]-N,N-diethyl-1-methyl-1H-benzimidazol-7-amine] | > 6.00 | 150 to 151 °C
CCC(c1cccc2nc(Cc3c(Cl)cc(C(F)(F)F)cc3Cl)n(C)c12)C(C)OC(C)=O (mixture of isomers) [Example 8, 2-{2-[2,6-Dichloro-4-(trifluoromethyl)benzyl]-1-methyl-1H-benzimidazol-7-yl}-1-methylbutyl acetate] | > 6.00 | –
CCC(CC)c1cccc2nc(C(O)c3c(C)cc(C)cc3C)n(C)c12 (stereo not drawn) [Example 10, [7-(1-Ethylpropyl)-1-methyl-1H-benzimidazol-2-yl](mesityl)methanol] | > 6.00 | 132 to 134 °C
CCC(CC)c1cccc2nc(Cc3c(C)cc(C)cc3C)n(C)c12 [Example 5, 7-(1-Ethylpropyl)-2-(mesitylmethyl)-1-methyl-1H-benzimidazole] | > 6.00 | –
CCC(O)(CC)c1cccc2nc(Cc3c(C)cc(C)cc3C)n(C)c12 [Example 3, 3-[2-(Mesitylmethyl)-1-methyl-1H-benzimidazol-7-yl]pentan-3-ol] | > 6.00 | –
CCC(O)(CC)c1cccc2nc(Cc3c(Cl)cc(C(F)(F)F)cc3Cl)n(C)c12 [Example 6, 3-{2-[2,6-Dichloro-4-(trifluoromethyl)benzyl]-1-methyl-1H-benzimidazol-7-yl}pentan-3-ol] | > 6.00 | –
CCN(CC)c1cccc2nc(Cc3c(C)cc(C)cc3C)n(C)c12 [Example 1, N,N-Diethyl-2-(mesitylmethyl)-1-methyl-1H-benzimidazol-7-amine] | > 6.00 | –
